{"source": "patent US7637980B2", "about": "“Method of increasing photosynthesis in plants comprising an exposure thereof to lipochitooligosaccharides and compositions therefor” (McGill University, priority 1999, dated 2009)", "type_in_all_cases": "in vivo", "key": {"soybean": {"test_system": "soybean", "assay": "Foliar spray of LCO on yield of soybean (2000 cropping season)", "conditions": "for Seed yield/plant / Seed yield: 0% seed moisture; for Seed yield: assuming 500,000 plants per ha", "from_the_text": "LCO 10^−6 M improved the yield by about 60%. The increase in yield was due to the increase in the number of pods/plant. The 100-seed weight was not increased by LCO spray during the 2000 field season. Also of note, the LCO application in the field experiments in year 2000 were by spraying whole plots, as opposed to individual plants (1999). Thus, the LCO effects described in the present invention are also observable when using large production application methods."}, "[1]": {"test_system": "soybean (cv OAC Bayfield)", "assay": "Photosynthesis of soybean under field conditions (1999)", "description": "(§1) The soybean experiment was conducted at the Lods Agronomy Research Centre, McGill University, Macdonald Campus, Ste-Anne-de-Bellevue, Quebec, Canada during the period June to September, 1999. A randomized complete block design with three blocks was followed. The plot size was 2×4 m with a row to row spacing of 25 cm and 10 cm between plants within a row. Seeds of soybean (cv OAC Bayfield), treated with commercial Bradyrhizobium japonicum inoculant (Bios Agriculture Inc., Quebec, Canada) at the rate of 3 g per kilogram of seed, were hand planted.\n(§2) At 25 days after planting twenty plants in each plot were randomly marked and sprayed until dripping with LCO solutions (10^−6, 10^−8 and 10^−10M) containing 0.02% Tween 20 with a hand sprayer. The plants on either side, within the row, of the marked plants were also sprayed. A second spray was carried out at flowering stage and a third spray at pod filling.\n(§3) As with the indoor experiments, photosynthetic readings were taken every day for five days after the application of LCO. For soybean additional developmental and agronomic data were collected. The first harvest was conducted at 25 days after the first spray treatment. Five plants were harvested from each plot and the following growth variables were analyzed: plant height, number of branches, number of leaves, leaf area, number of flower clusters, number of pods, number of nodules, dry weights of leaves, stem and roots. The final harvest was conducted after physiological maturity of the plants (Fehr et al., 1971); at this time the remaining fifteen treated plants from each plot were harvested and data on number of branches, number of pods, number of seeds and grain yield per plant was collected."}, "[2]": {"test_system": "soybean (cv OAC Bayfield)", "assay": "Growth and yield of soybean under field conditions (1999)", "description": "as §1, §2, §3"}, "corn (Pioneer 3921)": {"test_system": "corn (Pioneer 3921)", "assay": "Photosynthesis of field-grown corn after LCO spray", "description": "as §3, with “Single row corn plots (Pioneer 3921) were established during the 1999 and 2000 cropping seasons. The rows were 75 cm apart and their was an average of 20 cm between plants. The plants were sprayed at 40 DAP. Photosynthetic rates were recorded each day for 5 days after spray application. However, multiple sprays of LCO on corn were not possible due to limitations of LCO supplies, and because only single row plots were used yields were not recorded. As” for “As”"}, "Grapes (cv De Chaunac)": {"test_system": "Grapes (cv De Chaunac)", "assay": "Photosynthesis of field-grown grape after LCO spray", "description": "These experiments were conducted at the horticultural research facility of McGill University, Ste-Anne-de-Bellevue, Quebec, Canada during July 2000. LCO of different concentrations (10^−8, and 10^−10M) were prepared as described above. Branches of apple (cv Empire) and Grapes (cv De Chaunac) were sprayed with LCO and the photosynthesis was observed every 24 h for five days with a Li-Cor 6400 portable photosynthesis system (Li-Cor Inc., USA). Each treatment was applied to three branches from the same plant. Care was taken to ensure that the branches were on the same level and orientation. Part of each branch was sprayed with LCO and the remaining part served as a control. The control portion of the branch was sprayed with distilled water containing the same amount of Tween 20 as the LCO treatment solution. Observations were taken on 15 leaves per replicate for each treatment. For both apple and grape the entire procedure was repeated twice on two different plants."}}, "data": [{"substance": "Nod Bj V (C18:1, MeFeu)", "values": [{"measurement": "100-seed weight", "setting": "soybean; LCO 10^−6 M", "value": 17.4, "unit": "g"}, {"measurement": "Pod weight/plant", "setting": "soybean; LCO 10^−6 M", "value": 31.4, "unit": "g"}, {"measurement": "Pods/plant", "setting": "soybean; LCO 10^−6 M", "value": 46.8}, {"measurement": "Seeds/plant", "setting": "soybean; LCO 10^−6 M", "value": 118.0}, {"measurement": "Seed yield/plant", "setting": "soybean; LCO 10^−6 M", "value": 21.0, "unit": "g"}, {"measurement": "Seed yield", "setting": "soybean; LCO 10^−6 M", "value": 10.5, "unit": "t/ha"}, {"measurement": "100-seed weight", "setting": "soybean; LCO 10^−8 M", "value": 17.8, "unit": "g"}, {"measurement": "Pod weight/plant", "setting": "soybean; LCO 10^−8 M", "value": 24.1, "unit": "g"}, {"measurement": "Pods/plant", "setting": "soybean; LCO 10^−8 M", "value": 39.1}, {"measurement": "Seeds/plant", "setting": "soybean; LCO 10^−8 M", "value": 96.4}, {"measurement": "Seed yield/plant", "setting": "soybean; LCO 10^−8 M", "value": 16.2, "unit": "g"}, {"measurement": "Seed yield", "setting": "soybean; LCO 10^−8 M", "value": 8.1, "unit": "t/ha"}, {"measurement": "100-seed weight", "setting": "soybean; LCO 10^−10 M", "value": 18.1, "unit": "g"}, {"measurement": "Pod weight/plant", "setting": "soybean; LCO 10^−10 M", "value": 29.1, "unit": "g"}, {"measurement": "Pods/plant", "setting": "soybean; LCO 10^−10 M", "value": 47.7}, {"measurement": "Seeds/plant", "setting": "soybean; LCO 10^−10 M", "value": 117.7}, {"measurement": "Seed yield/plant", "setting": "soybean; LCO 10^−10 M", "value": 21.8, "unit": "g"}, {"measurement": "Seed yield", "setting": "soybean; LCO 10^−10 M", "value": 10.9, "unit": "t/ha"}, {"measurement": "100-seed weight", "setting": "soybean; LCO spray, 2000 field season", "value": "not increased"}, {"measurement": "stomatal conductance", "setting": "[1]", "value": "increases"}, {"measurement": "transpiration", "setting": "[1]", "value": "increased"}, {"measurement": "photosynthetic rate", "setting": "[1]; 10^−6 M, day three", "value": 24, "unit": "µmol m^−2 s^−1"}, {"measurement": "Leaf area/Plant", "setting": "[2]; LCO 10^−6 M, field", "value": 2306.3, "unit": "cm^2"}, {"measurement": "No. Branches/Plant", "setting": "[2]; LCO 10^−6 M, field", "value": 4.2}, {"measurement": "No. Leaves/Plant", "setting": "[2]; LCO 10^−6 M, field", "value": 29.4}, {"measurement": "No. Nodules/Plant", "setting": "[2]; LCO 10^−6 M, field", "value": 63.5}, {"measurement": "No. Pod clusters/Plant", "setting": "[2]; LCO 10^−6 M, field", "value": 24.3}, {"measurement": "No. Pods/Plant", "setting": "[2]; LCO 10^−6 M, field", "value": 42.9}, {"measurement": "No. seeds/Plant", "setting": "[2]; LCO 10^−6 M, field", "value": 104.7}, {"measurement": "Plant height", "setting": "[2]; LCO 10^−6 M, field", "value": 78.5, "unit": "cm"}, {"measurement": "Root Dry weight/plant", "setting": "[2]; LCO 10^−6 M, field", "value": 3.0, "unit": "gm"}, {"measurement": "Seed yield/plant", "setting": "[2]; LCO 10^−6 M, field", "value": 22.1, "unit": "gm"}, {"measurement": "Shoot dry weight/Plant", "setting": "[2]; LCO 10^−6 M, field", "value": 24.7, "unit": "gm"}, {"measurement": "Leaf area/Plant", "setting": "[2]; LCO 10^−8 M, field", "value": 2120.4, "unit": "cm^2"}, {"measurement": "No. Branches/Plant", "setting": "[2]; LCO 10^−8 M, field", "value": 5.1}, {"measurement": "No. Leaves/Plant", "setting": "[2]; LCO 10^−8 M, field", "value": 25.4}, {"measurement": "No. Nodules/Plant", "setting": "[2]; LCO 10^−8 M, field", "value": 84.6}, {"measurement": "No. Pod clusters/Plant", "setting": "[2]; LCO 10^−8 M, field", "value": 24.8}, {"measurement": "No. Pods/Plant", "setting": "[2]; LCO 10^−8 M, field", "value": 42.4}, {"measurement": "No. seeds/Plant", "setting": "[2]; LCO 10^−8 M, field", "value": 106.3}, {"measurement": "Plant height", "setting": "[2]; LCO 10^−8 M, field", "value": 85.8, "unit": "cm"}, {"measurement": "Root Dry weight/plant", "setting": "[2]; LCO 10^−8 M, field", "value": 2.3, "unit": "gm"}, {"measurement": "Seed yield/plant", "setting": "[2]; LCO 10^−8 M, field", "value": 21, "unit": "gm"}, {"measurement": "Shoot dry weight/Plant", "setting": "[2]; LCO 10^−8 M, field", "value": 23.7, "unit": "gm"}, {"measurement": "Leaf area/Plant", "setting": "[2]; LCO 10^−10 M, field", "value": 1513.1, "unit": "cm^2"}, {"measurement": "No. Branches/Plant", "setting": "[2]; LCO 10^−10 M, field", "value": 3.4}, {"measurement": "No. Leaves/Plant", "setting": "[2]; LCO 10^−10 M, field", "value": 22.2}, {"measurement": "No. Nodules/Plant", "setting": "[2]; LCO 10^−10 M, field", "value": 68.3}, {"measurement": "No. Pod clusters/Plant", "setting": "[2]; LCO 10^−10 M, field", "value": 28.3}, {"measurement": "No. Pods/Plant", "setting": "[2]; LCO 10^−10 M, field", "value": 48.0}, {"measurement": "No. seeds/Plant", "setting": "[2]; LCO 10^−10 M, field", "value": 118.1}, {"measurement": "Plant height", "setting": "[2]; LCO 10^−10 M, field", "value": 83.5, "unit": "cm"}, {"measurement": "Root Dry weight/plant", "setting": "[2]; LCO 10^−10 M, field", "value": 2.3, "unit": "gm"}, {"measurement": "Seed yield/plant", "setting": "[2]; LCO 10^−10 M, field", "value": 22.6, "unit": "gm"}, {"measurement": "Shoot dry weight/Plant", "setting": "[2]; LCO 10^−10 M, field", "value": 19.8, "unit": "gm"}, {"measurement": "Plant height", "setting": "[2]; field 1999, LCO treatment vs control", "value": "not affected"}, {"measurement": "grain yield enhanced by", "setting": "[2]; field, spray at seedling, flowering and podfilling stages", "value": "33-44%"}, {"measurement": "Ci", "setting": "corn (Pioneer 3921); field grown plants", "value": "no such effect"}, {"measurement": "increase of photosynthetic rate, maximum", "setting": "corn (Pioneer 3921); field, two days after treatment application", "value": "approximately 10%"}, {"measurement": "stomatal conductance", "setting": "Grapes (cv De Chaunac); 10^−10 M, three days after treatment", "value": "increase"}, {"measurement": "photosynthetic rates", "setting": "Grapes (cv De Chaunac); greatest three days after treatment with 10^−10 M", "value": "increases"}]}]}
